The record followed here is patent US20100260680A1, “NOVEL BONE MASS INCREASING AGENT” (ORIENTAL YEAST CO., LTD., priority 2007, published 2010).

Bridges are numbered along the chain shown (N, C = ends). Where no end group is shown, it is not given here.

The test system of one test is MC3T3-E1 cells. Put plainly: ALP activity determination in MC3T3-E1 cells. The test is classed as cell-based, mouse. As to the method: Seven days after differentiation, the culture supernatant was removed from each plate and the cells were fixed with an acetone/ethanol solution. The ALP activity was determined using p-nitrophenyl phosphate as a substrate. Specifically, a carbonate buffer (5 mM MgCl2, 50 mM NaHCO3) containing p-nitrophenyl phosphate (Nacalai) (1 mg/mL) was added to each well (100 μL/well), followed by incubation at 37° C. Then, the OD value at 405 nm was determined with the use of a microplate reader (BMG Labtech) for each well.
Cells mixed with 10% FBS+αMEM (GIBCO) were seeded on a 96-well plate (8×10^3 cells/well) and a 48-well plate (2×10^4 cells/well). The culture supernatant of each plate was replaced with 10% FBS+αMEM containing 5 mM β glycerophosphoric acid (SIGMA)+10 μg/mL sodium ascorbate (SIGMA) 48 hours later. Then, the medium was replaced with new medium every 3 or 4 days. As a control, MC3T3-E1 was cultured with the use of 10% FBS+αMEM as a maintenance medium. Upon medium replacement, a peptide was added to each plate at a concentration of 300 μM, ALP activity determination and alizarin red S staining were carried out by the method described in Example 1 on Days 7 and 21.
MC3T3-E1 cells mixed with 10% FBS+αMEM (SIGMA) were seeded on a 96-well plate (1.5×10^4 cells/well). After 12 hours, the medium was removed therefrom and a medium containing an SB203580 p38 inhibitor (Calbiochem) was added thereto. […] Then, ALP activity determination was carried out by the method described in Example 1.
Similarly, rhDkk-1 (R&D) was added as a Wnt antagonist at concentrations of 0.25, 0.5, and 1 μg/ml. After 1 hour, 200 μM peptide D was added thereto, followed by culture for 5 days. Then, ALP activity determination was carried out by the method described in Example 1.
In addition, as described above, BMPR-IA (R&D) was added as a BMP antagonist at concentrations of 0.25 and 1 μg/ml. […] Then, ALP activity determination was carried out by the method described in Example 1. […] Based on the above results, it was likely that actions of peptide D depend on BMP induction or BMP produced constantly and spontaneously by cells.
MC3T3-E1 cells mixed with 10% FBS+α MEM (SIGMA) were seeded on a 96-well plate (1.5×10^4 cells/well).
Further, peptide D and peptide E were compared with each other in terms of ALP activity enhancement actions in MC3T3-E1 cells. Peptide D and peptide E were used at concentrations of 25, 50, 100, and 200 μM for culture under the conditions described in Example 14, followed by determination of ALP activity by the method described in Example 1.
MC3T3-E1 cells (mouse osteoblast precursor cells) mixed with 10% FBS+αMEM (SIGMA) were seeded on a 96-well plate (2×10^4 cells/well). After cell adhesion, the medium was removed therefrom, followed by ALP activity determination in the cases involving the addition of 50 and 150 μM peptide D (acetate and hydrochloride). […] On Day 5 after the addition of the individual factors, the culture supernatant was removed, followed by ALP activity determination by the method described in Example 1.
MC3T3-E1 cells (mouse osteoblast precursor cells) mixed with 10% FBS+αMEM (SIGMA) were seeded on a 96-well plate (2×10^4 cells/well). After cell adhesion had taken place, the medium was removed therefrom, followed by determination of ALP activity in the cases involving the mixing of 5 ng/mLBMP-2 (produced by CHO cells) with 6.25, 12.5, 25, 50, and 100 μM synthetic peptide D. On Day 5 after the addition of the individual factors, the culture supernatant was removed, followed by ALP activity determination by the method described in Example 1.
At the end of the experiment, synergistic effects of synthetic peptide D in the form of acetate and BMP-4 (R&D) were also examined. MC3T3-E1 cells (mouse osteoblast precursor cells) mixed with 10% FBS+αMEM (SIGMA) were seeded on a 96-well plate (2×10^4 cells/well). […]

The subject of test [1] is Human mesenchymal stem cells. In words: Alizarin red S staining (calcification) of human mesenchymal stem cells. The test is classed as cell-based. Particulars: 300 μM; Day 21; regardless of induction of differentiation. On the procedure: On Day 21 after differentiation, the cells were washed with PBS, followed by fixation with a 10% neutral buffer formalin solution.
The cells were washed with water after removal of the fixative solution. A 1% alizarin red S stain solution (Nacalai) (150 μL) was added thereto. The plate was left at room temperature for 3 minutes. Thereafter, the stain solution was discarded, followed by washing with water and drying. Then, microscopic observation was carried out.
Human mesenchymal stem cells were cultured in the same manner as in Example 1. Peptide D (300 μM) was added to human mesenchymal stem cells.

For test [2], the system named is Human mesenchymal stem cells. In words: ALP staining of human mesenchymal stem cells. In kind it is cell-based. Particulars: Day 7 after differentiation; compared with the control group. On the procedure:
Peptide D was added at a concentration of 300 μM during differentiation. On Day 7, cells were fixed with a 10% neutral buffer formalin solution, followed by re-fixation with an acetone/ethanol solution.
A stain solution (500 μL) prepared with the composition described below was added to the cells, followed by incubation at 37° C. for 10 minutes, washing with water, and drying.
Naphthol AS-MX phosphate (SIGMA): 5 mg
Fast blue hemi-salt (SIGMA): 30 mg

Turning to “peptide D: cyclic peptide of SEQ ID NO: 7, 9 amino acids, two cysteine residues bound via a disulfide bond; binds to RANKL (YCWSQYLCY; disulfide 2-8 (inferred))”, the ALP activity entry with MC3T3-E1 cells (150 μM peptide D combined with 30 ng/mL BMP-2) is reported as “additive actions of ALP activity enhancement”; in the test with MC3T3-E1 cells (300 μM, Day 7 after differentiation), “significantly increased”; in the test on MC3T3-E1 cells (25, 50, 100 and 200 μM, 5 days) it was “enhance ALP activity in a concentration-dependent manner”. Besides, the “ALP activity, peptide D compared with peptide E” value with MC3T3-E1 cells (50 and 100 μM) is “significant enhancement actions compared with peptide E”. In test [1], the “alizarin red staining (calcification)” value is given as “strong degree of alizarin red staining”. The ALP staining result in test [2] is reported as “observed in a concentration-dependent manner”.
